From patent US20230044427A1, “EVAPORATION RETARDANT MEMBRANE FOR ODORANT COMPOSITIONS” (BASF SE, priority 2020, published 2023)

Assay: Evaporation cell test: weight loss of volatile compound through coated or uncoated paper
Assay type: physicochemical
Details: paper 1, Polymer dispersion 1, thickness 10 g/m^2, coverage 50%; 23° C., 50% humidity
Description: The test was carried out according to the method described by Diehl, H. Pfeiffer, A.-M, Seyffer H., (2014), New testing method for functional barriers, International Paperworld IPW 8-11. All tests were carried out in a climate chamber at 23° C. and 50% humidity.
For this, circular specimens were cut from the paper coated with the respective coating. The specimen was placed in the holder of the evaporation cell. A defined amount of the respective volatile compound was filled into the chamber of the evaporation cell, and the chamber was closed by the holder and immediately weighed thereafter to an accuracy of 0.1 mg. The closed evaporation cell was reweighed after 1 h, 4 h, 1 d and 2 d.

SMILES	Weight loss of volatile compound through respective coating of paper 1
CCCCCC=O [Hexanal]	291 g/(m^2d)
C=C(C)[C@H]1CC=C(C)CC1 [Limonene]	2 g/(m^2d)
CCCCCC [n-Hexane]	4 g/(m^2d)
CC(C)=CCCC(C)CC=O (stereo not drawn) [Citronellal]	2 g/(m^2d)
CCCCCCC [n-Heptane]	2 g/(m^2d)

Continued, values first:

Weight loss of volatile compound through respective coating of paper 1	SMILES
120 g/(m^2d)	CC(=O)OCCC(C)C [Isoamyl acetate]
300 g/(m^2d)	CC(=O)OCC(C)C [Isobutyl acetate]
1320 g/(m^2d)	CCOC(C)=O [Ethyl acetate]

Same assay, conditions: paper 1, Polymer dispersion 2, thickness 10 g/m^2, coverage 50%; 23° C., 50% humidity

SMILES	Weight loss of volatile compound through respective coating of paper 1
CCCCCC=O [Hexanal]	702 g/(m^2d)
C=C(C)[C@H]1CC=C(C)CC1 [Limonene]	100 g/(m^2d)
CCCCCC [n-Hexane]	1900 g/(m^2d)
CC(C)=CCCC(C)CC=O (stereo not drawn) [Citronellal]	2 g/(m^2d)
CCCCCCC [n-Heptane]	1200 g/(m^2d)

Next, values leading:

Weight loss of volatile compound through respective coating of paper 1	SMILES
204 g/(m^2d)	CC(=O)OCCC(C)C [Isoamyl acetate]
320 g/(m^2d)	CC(=O)OCC(C)C [Isobutyl acetate]
1300 g/(m^2d)	CCOC(C)=O [Ethyl acetate]

Same assay, conditions: paper 2, Polymer dispersion 1, thickness 15 g/m^2, coverage 30%; 23° C., 50% humidity

SMILES	Weight loss of volatile compound through respective coating of paper 2
CCCCCC=O [Hexanal]	725 g/(m^2d)
C=C(C)[C@H]1CC=C(C)CC1 [Limonene]	5 g/(m^2d)
CCCCCC [n-Hexane]	10 g/(m^2d)
CC(C)=CCCC(C)CC=O (stereo not drawn) [Citronellal]	5 g/(m^2d)
CCCCCCC [n-Heptane]	5 g/(m^2d)

More lines, now with the values ahead:

Weight loss of volatile compound through respective coating of paper 2	SMILES
295 g/(m^2d)	CC(=O)OCCC(C)C [Isoamyl acetate]
749 g/(m^2d)	CC(=O)OCC(C)C [Isobutyl acetate]
3300 g/(m^2d)	CCOC(C)=O [Ethyl acetate]

Same assay, conditions: paper 2, Polymer dispersion 2, thickness 5 g/m^2, coverage 70%; 23° C., 50% humidity

SMILES	Weight loss of volatile compound through respective coating of paper 2
CCCCCC=O [Hexanal]	353 g/(m^2d)
C=C(C)[C@H]1CC=C(C)CC1 [Limonene]	53 g/(m^2d)
CCCCCC [n-Hexane]	953 g/(m^2d)
CC(C)=CCCC(C)CC=O (stereo not drawn) [Citronellal]	4 g/(m^2d)
CCCCCCC [n-Heptane]	603 g/(m^2d)

Further lines, results first:

Weight loss of volatile compound through respective coating of paper 2	SMILES
103 g/(m^2d)	CC(=O)OCCC(C)C [Isoamyl acetate]
163 g/(m^2d)	CC(=O)OCC(C)C [Isobutyl acetate]
653 g/(m^2d)	CCOC(C)=O [Ethyl acetate]

Same assay, conditions: paper V1, Polymer dispersion 1, thickness 10 g/m^2, coverage 100%; 23° C., 50% humidity

SMILES	Weight loss of volatile compound through respective coating of paper V1
CCCCCC=O [Hexanal]	145 g/(m^2d)
C=C(C)[C@H]1CC=C(C)CC1 [Limonene]	1 g/(m^2d)
CCCCCC [n-Hexane]	2 g/(m^2d)
CC(C)=CCCC(C)CC=O (stereo not drawn) [Citronellal]	1 g/(m^2d)
CCCCCCC [n-Heptane]	1 g/(m^2d)

Other lines, results leading:

Weight loss of volatile compound through respective coating of paper V1	SMILES
60 g/(m^2d)	CC(=O)OCCC(C)C [Isoamyl acetate]
150 g/(m^2d)	CC(=O)OCC(C)C [Isobutyl acetate]
660 g/(m^2d)	CCOC(C)=O [Ethyl acetate]

Same assay, conditions: paper V1, Polymer dispersion 2, thickness 10 g/m^2, coverage 100%; 23° C., 50% humidity

SMILES	Weight loss of volatile compound through respective coating of paper V1
CCCCCC=O [Hexanal]	350 g/(m^2d)
C=C(C)[C@H]1CC=C(C)CC1 [Limonene]	50 g/(m^2d)
CCCCCC [n-Hexane]	950 g/(m^2d)
CC(C)=CCCC(C)CC=O (stereo not drawn) [Citronellal]	1 g/(m^2d)
CCCCCCC [n-Heptane]	600 g/(m^2d)

Further lines, results first:

Weight loss of volatile compound through respective coating of paper V1	SMILES
100 g/(m^2d)	CC(=O)OCCC(C)C [Isoamyl acetate]
160 g/(m^2d)	CC(=O)OCC(C)C [Isobutyl acetate]
650 g/(m^2d)	CCOC(C)=O [Ethyl acetate]

Same assay, conditions: uncoated paper V2, no coating; 23° C., 50% humidity

SMILES	Weight loss of volatile compound through uncoated paper V2
CCCCCC=O [Hexanal]	3750 g/(m^2d)
C=C(C)[C@H]1CC=C(C)CC1 [Limonene]	1750 g/(m^2d)
CCCCCC [n-Hexane]	> 4000 g/(m^2d)
CC(C)=CCCC(C)CC=O (stereo not drawn) [Citronellal]	950 g/(m^2d)
CCCCCCC [n-Heptane]	4500 g/(m^2d)

Next, values leading:

Weight loss of volatile compound through uncoated paper V2	SMILES
2100 g/(m^2d)	CC(=O)OCCC(C)C [Isoamyl acetate]
3500 g/(m^2d)	CC(=O)OCC(C)C [Isobutyl acetate]
2450 g/(m^2d)	CCOC(C)=O [Ethyl acetate]

Assay: not given
Details: vapor pressure at 25° C.; cited from earlier work

SMILES	VP(25° C.) [mbar]
CCCCCC=O [Hexanal]	15
CC(=O)OCCC(C)C [Isoamyl acetate]	5
CC(=O)OCC(C)C [Isobutyl acetate]	20
CCOC(C)=O [Ethyl acetate]	7
C=C(C)[C@H]1CC=C(C)CC1 [Limonene]	2
CCCCCC [n-Hexane]	201
CC(C)=CCCC(C)CC=O (stereo not drawn) [Citronellal]	0.5
CCCCCCC [n-Heptane]	61

Assay: not given
Details: water / 1-octanol; cited from earlier work

SMILES	Log Pow
CCCCCC=O [Hexanal]	1.9
CC(=O)OCCC(C)C [Isoamyl acetate]	2.5
CC(=O)OCC(C)C [Isobutyl acetate]	1.8
CCOC(C)=O [Ethyl acetate]	0.9
C=C(C)[C@H]1CC=C(C)CC1 [Limonene]	4.6
CCCCCC [n-Hexane]	3.9
CC(C)=CCCC(C)CC=O (stereo not drawn) [Citronellal]	3.8
CCCCCCC [n-Heptane]	4.8
